Experimental data reported in the supplement of paper PMC10331698.
± gives the standard deviation of the averaged measurements.

How the values were obtained:
Assay in all cases: level (log10 ratio to DMSO vehicle control); higher = higher biomarker level / cell amount than vehicle control
Settings in all cases: in DMSO
[1] = compound: O=C(O)C(F)(F)C(F)(F)OC(F)(F)F [Perfluoro-3-methoxypropanoic acid]
Protocol: (§1)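 BioMAP Diversity Plus panel of 12 human primary cell co-culture systems (3C, 4H, LPS, SAg, BT, BF4T, BE3C, CASM3C, HDF3CGF, KF3CT, MyoF, Mphg). Compounds were added 1 h before stimulation and left for 24 h (MyoF 48 h; BT 72 h for soluble read-outs or 6 d for IgG). Biomarkers were read by ELISA, cytotoxicity by SRB, PBMC viability and proliferation by Alamar Blue. Each well value was divided by the mean of 8 DMSO control wells on the same plate and log10 transformed; duplicate blinded samples were tested at 4 concentrations.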

[2] = compound: FC(F)(F)C(F)(F)C(F)(F)C(F)(F)C(F)(F)C(F)(F)C(F)(F)C(F)(F)CCS [2-(Perfluorooctyl)ethanthiol]
Protocol: as §1

[3] = compound: O=C(O)C(F)(F)OC(F)(F)C(F)(F)OC(F)(F)F [Perfluoro-3,6-dioxaheptanoic acid]
Protocol: as §1

Heptafluorobutyramide = compound: NC(=O)C(F)(F)C(F)(F)C(F)(F)F [Heptafluorobutyramide]
Protocol: as §1

Perfluoropentanoic acid = compound: O=C(O)C(F)(F)C(F)(F)C(F)(F)C(F)(F)F [Perfluoropentanoic acid]
Protocol: as §1

[4] = compound: O=C(O)C(F)(F)OC(F)(F)C(F)(F)OC(F)(F)C(=O)O [Perfluoro-3,6-dioxaoctane-1,8-dioic acid]
Protocol: as §1

[5] = compound: FC(F)C(F)(F)COCC1CO1 [((2,2,3,3-Tetrafluoropropoxy)methyl)oxirane]
Protocol: as §1

Test System	level (log10) ([1]; 6700 nM)	level (log10) ([1]; 20000 nM)	level (log10) ([1]; 60000 nM)	level (log10) ([2]; 6700 nM)	level (log10) ([2]; 20000 nM)	level (log10) ([3]; 6700 nM)	level (log10) ([3]; 20000 nM)	level (log10) ([3]; 60000 nM)	level (log10) (Heptafluorobutyramide; 6700 nM)	level (log10) (Heptafluorobutyramide; 20000 nM)	level (log10) (Heptafluorobutyramide; 60000 nM)	level (log10) (Perfluoropentanoic acid; 6700 nM)	level (log10) (Perfluoropentanoic acid; 20000 nM)	level (log10) (Perfluoropentanoic acid; 60000 nM)	level (log10) ([4]; 6700 nM)	level (log10) ([4]; 20000 nM)	level (log10) ([4]; 60000 nM)	level (log10) ([5]; 6700 nM)	level (log10) ([5]; 20000 nM)	level (log10) ([5]; 60000 nM)
LPS:SRB	0.006 ± 0.0085	0.011 ± 0.0099	0.026 ± 0.0028	0.0025 ± 0.0078	-0.003 ± 0.014	-0.011 ± 0.0028	-0.0105 ± 0.00071	-0.0095 ± 0.00071	-0.0115 ± 0.015	-0.009 ± 0.0071	-0.002 ± 0.0071	0.0015 ± 0.0078	0.004	0.003 ± 0.0085	0.007 ± 0.011	0.005 ± 0.021	0.0115 ± 0.025	-0.0145 ± 0.0035	-0.005	-0.0105 ± 0.0092
LPS:sPGE2	-0.0295 ± 0.03	0.0045 ± 0.052	-0.0185 ± 0.011	-0.017 ± 0.025	-0.022 ± 0.011	-0.0065 ± 0.047	-0.0395 ± 0.018	-0.006 ± 0.021	-0.0305 ± 0.057	0.011 ± 0.0042	-0.004 ± 0.0071	-0.008 ± 0.11	-0.018 ± 0.0028	0.017 ± 0.011	-0.0045 ± 0.013	-0.006 ± 0.011	0.0045 ± 0.0078	-0.0355 ± 0.032	-0.022 ± 0.011	-0.037 ± 0.014
LPS:sTNF-alpha	0.036 ± 0.011	0.036 ± 0.045	0.06 ± 0.059	0.052 ± 0.013	0.098 ± 0.0071	-0.012 ± 0.027	-0.0265 ± 0.023	-0.0205 ± 0.005	0.012 ± 0.017	0.013 ± 0.011	0.001 ± 0.023	0.003 ± 0.021	0.01 ± 0.0071	0.021 ± 0.014	-0.012 ± 0.057	0.0145 ± 0.063	0.0445 ± 0.059	0.0135 ± 0.0021	0.015 ± 0.013	0.0175 ± 0.0021
SAg:CCL2/MCP-1	-0.007 ± 0.013	-0.0075 ± 0.0092	-0.0035 ± 0.0078	-0.0085 ± 0.019	0.017 ± 0.0028	0.0125 ± 0.032	0.002 ± 0.035	-0.0025 ± 0.033	-0.0125 ± 0.015	-0.011 ± 0.0099	0.0085 ± 0.037	0.0085 ± 0.021	-0.0205 ± 0.011	0.023 ± 0.031	0.0065 ± 0.0035	-0.0145 ± 0.00071	-0.0095 ± 0.0064	-0.0305 ± 0.046	-0.0185 ± 0.016	-0.014 ± 0.011
SAg:CD38	-0.007 ± 0.0042	0.003 ± 0.0085	-0.0005 ± 0.012	-0.036 ± 0.057	-0.0245 ± 0.042	-0.0055 ± 0.052	-0.003 ± 0.047	-0.014 ± 0.024	-0.0315 ± 0.029	-0.03 ± 0.016	-0.021 ± 0.021	0.003 ± 0.017	0.0015 ± 0.011	0.002 ± 0.0057	-0.001	0.0015 ± 0.0021	0.0055 ± 0.0021	-0.007 ± 0.0014	-0.006 ± 0.011	0.002 ± 0.023
SAg:CD40	0.013 ± 0.0071	0.01 ± 0.0042	-0.0055 ± 0.019	0.0105 ± 0.011	0.006 ± 0.011	-0.0425 ± 0.088	-0.0475 ± 0.022	-0.063 ± 0.093	-0.031 ± 0.042	-0.039 ± 0.042	-0.034 ± 0.068	0.0105 ± 0.005	0.0025 ± 0.0064	-0.001 ± 0.025	0.015 ± 0.0028	0.01 ± 0.0057	-0.008 ± 0.013	-0.0095 ± 0.018	-0.009 ± 0.0057	-0.0015 ± 0.0078
SAg:CD62E/E-Selectin	0.004 ± 0.0099	-0.01 ± 0.018	-0.016 ± 0.018	-0.0115 ± 0.0064	-0.0015 ± 0.022	-0.0015 ± 0.0021	0.001 ± 0.0042	0.021 ± 0.0057	0.0035 ± 0.023	-0.008 ± 0.047	-0.0065 ± 0.022	0.0005 ± 0.0064	-0.012 ± 0.013	0.0195 ± 0.025	0.007 ± 0.0085	0.011 ± 0.0028	0.011 ± 0.021	0.0075 ± 0.018	-0.002 ± 0.023	0.009 ± 0.047
SAg:CD69	0.0005 ± 0.00071	0.0225 ± 0.011	-0.0005 ± 0.018	-0.0165 ± 0.0092	-0.035 ± 0.0014	-0.024 ± 0.0085	-0.013 ± 0.014	-0.029 ± 0.0028	0.031 ± 0.034	0.02 ± 0.016	0.0165 ± 0.05	0.002 ± 0.016	-0.0155 ± 0.028	-0.0165 ± 0.033	0.0045 ± 0.0021	0.007 ± 0.0057	0 ± 0.0014	-0.0225 ± 0.0078	-0.018 ± 0.014	0 ± 0.03
SAg:CXCL8/IL-8	0.021 ± 0.0028	-0.017 ± 0.034	0.0095 ± 0.04	-0.0215 ± 0.032	0.027 ± 0.082	0.0055 ± 0.0035	0.034 ± 0.0071	0.0735 ± 0.04	0.015 ± 0.013	0.011 ± 0.017	0.0085 ± 0.021	-0.012 ± 0.041	-0.018 ± 0.044	-0.013 ± 0.088	-0.006 ± 0.0085	-0.0015 ± 0.0064	0.0155 ± 0.035	-0.004 ± 0.011	-0.0335 ± 0.011	0.02 ± 0.018
SAg:CXCL9/MIG	0.001 ± 0.0057	0.006 ± 0.0042	-0.002 ± 0.0099	0.0015 ± 0.016	0.01 ± 0.0042	0.006 ± 0.014	0.001 ± 0.014	0.0055 ± 0.0078	0.0075 ± 0.0021	-0.0025 ± 0.012	0.0005 ± 0.013	-0.0115 ± 0.0078	-0.014 ± 0.0099	0.004 ± 0.021	-0.0065 ± 0.005	0.004 ± 0.0057	-0.001 ± 0.013	-0.002 ± 0.011	-0.006 ± 0.014	0.0065 ± 0.0092
SAg:PBMC Cytotoxicity	0.034 ± 0.014	0.016 ± 0.013	-0.0115 ± 0.011	-0.025 ± 0.023	-0.0015 ± 0.0035	-0.0035 ± 0.029	0.002 ± 0.0042	0.013 ± 0.0028	0.001 ± 0.014	-0.0125 ± 0.021	0.019 ± 0.0099	-0.0105 ± 0.023	-0.0135 ± 0.012	0.0145 ± 0.022	0.0115 ± 0.023	0.012 ± 0.0099	0.0115 ± 0.0078	0.031 ± 0.021	-0.006	0.0205 ± 0.023
SAg:Proliferation	-0.0075 ± 0.035	-0.015 ± 0.033	0.0005 ± 0.026	0.056 ± 0.016	0.0225 ± 0.03	-0.023 ± 0.061	-0.005 ± 0.025	0.0115 ± 0.04	-0.0035 ± 0.03	-0.0055 ± 0.00071	-0.0265 ± 0.011	-0.0195 ± 0.04	0.0205 ± 0.046	0.0175 ± 0.08	-0.017 ± 0.05	-0.011 ± 0.035	-0.0085 ± 0.021	-0.0075 ± 0.019	-0.02 ± 0.03	-0.0095 ± 0.0092
SAg:SRB	-0.0025 ± 0.0078	-0.0005 ± 0.0021	-0.0045 ± 0.0064	0.002 ± 0.0014	-0.004 ± 0.0014	-0.0085 ± 0.0035	-0.0175 ± 0.00071	-0.008 ± 0.0085	-0.018 ± 0.025	-0.0125 ± 0.011	-0.0095 ± 0.018	-0.007 ± 0.0099	-0.0035 ± 0.00071	0.0055 ± 0.015	0.007 ± 0.013	0.0005 ± 0.0064	0.0045 ± 0.00071	-0.007 ± 0.0057	-0.0075 ± 0.0064	-0.005 ± 0.014
